Measurements: patent publication US20240336594A1, “SIX-MEMBERED ARYL OR HETEROARYL AMIDES, AND COMPOSITION AND USE THEREOF” (BETTA PHARMACEUTICALS CO., LTD, priority 2021, published 2024)

molecular target: T1, MALT1 (Homo sapiens, UniProt Q9UDY8); assay: MALT1 protease inhibition assay (AMC-labeled peptide, fluorescence 360/460); assay type: biochemical; settings: substrate Ac-LRSR-AMC, 15 min preincubation, 90 min at 25° C.
T1 sequence (Q9UDY8 1-824): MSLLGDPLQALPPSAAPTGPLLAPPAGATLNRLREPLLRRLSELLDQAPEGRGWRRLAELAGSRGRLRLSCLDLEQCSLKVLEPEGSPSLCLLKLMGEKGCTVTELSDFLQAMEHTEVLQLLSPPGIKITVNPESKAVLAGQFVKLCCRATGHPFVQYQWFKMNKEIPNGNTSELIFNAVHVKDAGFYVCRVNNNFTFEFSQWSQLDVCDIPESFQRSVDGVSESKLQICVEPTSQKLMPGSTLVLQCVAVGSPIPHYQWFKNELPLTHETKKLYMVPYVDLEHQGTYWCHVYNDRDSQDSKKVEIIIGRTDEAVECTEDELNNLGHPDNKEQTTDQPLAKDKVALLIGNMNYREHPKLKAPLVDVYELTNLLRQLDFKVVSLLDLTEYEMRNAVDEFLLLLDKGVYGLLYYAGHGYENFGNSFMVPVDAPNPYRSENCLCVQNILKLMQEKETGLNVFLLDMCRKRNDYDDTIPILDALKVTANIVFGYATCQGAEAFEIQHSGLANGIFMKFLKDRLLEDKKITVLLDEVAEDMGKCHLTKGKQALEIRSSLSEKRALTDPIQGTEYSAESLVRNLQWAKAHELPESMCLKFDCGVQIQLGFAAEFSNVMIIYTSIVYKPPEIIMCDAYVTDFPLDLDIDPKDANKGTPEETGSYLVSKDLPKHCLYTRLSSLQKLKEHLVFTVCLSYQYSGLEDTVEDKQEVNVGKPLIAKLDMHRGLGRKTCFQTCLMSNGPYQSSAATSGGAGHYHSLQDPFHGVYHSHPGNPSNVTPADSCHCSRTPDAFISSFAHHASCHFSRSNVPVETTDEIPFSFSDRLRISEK
Method: Test compounds of the present invention (in 100% DMSO) were spotted into a 384-well dilution plate and serially diluted to the required concentrations with DMSO. Then, 0.2 μL of the test compounds were transferred into a new 384-well reaction plate by Echo following centrifugation. The MALT enzyme and its substrate, AMC-labeled peptide, were prepared in 1× protease buffer to yield 2× enzyme solution and 2× peptide solution. Subsequently, 10 μL of 2× enzyme solution was added into the 384-well reaction plate, incubating with the test compounds for 15 minutes at 25° C. After that, 10 μL of 2× peptide solution was added into the plate, continuing to incubate for 90 minutes at 25° C. The plate was then placed on an Envision multifunctional microplate reader to collect raw data, which would be converted into inhibition rate:
Inhibition rate %=(max−sample)/(max−min)*100%. • “max” values were measured using the reaction with enzyme but no compound treated, while “min” values were generated from control wells containing assay buffer without enzyme.
Curve fitting was done with Graphpad Prism software to determine the IC50 values. The specific experimental operations are as follows:
58.82 g Na Citrate·2H2O powder was added into 140 mL ddH2O and mixed in a 37° C. water bath. Once there were no visible particles, the remaining solutions were added successively with continuous stirring for 10 minutes. The final volume was adjusted to 200 mL. The buffer was stored at room temperature. DTT was added before use.
• 1) All test compounds were diluted from 10 mM stock solution into 1 mM in a 384 well dilution plate (labcyte, PP-0200); • 2) Ten various concentrations of the diluted compound solution above were obtained by serial dilution at an equal ratio of 1:3; • 3) 0.2 μL DMSO was transferred to two empty wells of the 384 reaction plate as blank controls without compound and enzyme respectively; • 4) 0.2 μL of the test compound at different concentrations was also transferred into the 384 reaction plate by Echo, with two duplicate wells for each concentration, then the plate was centrifuged at 1000 rpm for 1 min.
• 1) The MALT1 protease and AMC-labeled peptide was prepared in 1× protease buffer to obtain 2× enzyme solution and 2× peptide solution. 10 μL of 2× enzyme solution was added into the 384-well reaction plate. The plate was centrifuged at 1000 rpm for 1 min and incubated for 15 min at 25° C. • 2) 10 μL of 2× peptide solution was then transferred to the 384 reaction plate, and the plate was centrifuged at 1000 rpm for 1 min and incubate for 90 min at 25° C.

IC50 [nM]	Compound
10 to 100	N#CCNC(=O)c1ncc(NC(=O)c2cc(F)c(-c3ccc(F)nc3N)cc2Cl)cc1Cl [Example A456, 5-(4-(2-amino-6-fluoropyridin-3-yl)-2-chloro-5-fluorobenzamido)-3-chloro-N-(cyanomethyl)picolinamide]
10 to 100	Nc1cc(F)ccc1-c1cc(Cl)c(C(=O)Nc2cnc(C(=O)NCC3CC(F)(F)C3)c(Cl)c2)cc1F [Example A451, 5-(2′-amino-5-chloro-2,4′-difluoro-[1,1′-biphenyl]-4-carboxamido)-3-chloro-N-((3,3-difluorocyclobutyl)methyl) picolinamide]
10 to 100	N#CCNC(=O)c1ncc(NC(=O)c2cc(F)c(-c3ccc(F)cc3N)cc2Cl)cc1Cl [Example A441, 5-(2′-amino-5-chloro-2,4′-difluoro-[1,1′-biphenyl]-4-carboxamido)-3-chloro-N-(cyanomethyl)picolinamide]
≤ 10	C#Cc1cncc(N)c1-c1cc(Cl)c(C(=O)Nc2cnc(C(=O)NCC)c(Cl)c2)cc1F [Example A479, 5-(4-(3-amino-5-ethynylpyridin-4-yl)-2-chloro-5-fluorobenzamido)-3-chloro-N-ethylpicolinamide]
≤ 10	C#Cc1c(F)nc(F)c(N)c1-c1cc(Cl)c(C(=O)Nc2cnc(-n3nccn3)c(C(F)(F)F)c2)cc1F [Example A557, N-(6-(2H-1,2,3-triazol-2-yl)-5-(trifluoromethyl)pyridin-3-yl)-4-(3-amino-5-ethynyl-2,6-difluoropyridin-4-yl)-2-chloro-5-fluorobenzamide]
≤ 10	C#Cc1cnccc1-c1c(F)c(F)c(C(=O)Nc2cnc(-n3nccn3)c(Cl)c2)c(F)c1F [Example A333, N-(5-chloro-6-(2H-1,2,3-triazol-2-yl)pyridin-3-y1)-4-(3-ethynylpyridin-4-y1)-2,3,5,6-tetrafluorobenzamide]
10 to 100	Nc1cc(F)ccc1-c1cc(Cl)c(C(=O)Nc2cnc(C(=O)NCc3ccoc3)c(Cl)c2)cc1F [Example A447, 5-(2′-amino-5-chloro-2,4′-difluoro-[1,1′-biphenyl]-4-carboxamido)-3-chloro-N-(furan-3-ylmethyl)picolinamide]
≤ 10	C#Cc1cnc(C#N)c(N)c1-c1cc(Cl)c(C(=O)Nc2cnc(-n3nccn3)c(C(F)(F)F)c2)cc1F [Example A554, N-(6-(2H-1,2,3-triazol-2-yl)-5-(trifluoromethyl)pyridin-3-yl)-4-(3-amino-2-cyano-5-ethynylpyridin-4-yl)-2-chloro-5-fluorobenzamide]
> 500	Cc1cc(-c2ccc(F)cc2Cl)c(-c2ccccc2)cc1C(=O)Nc1cnc(-n2nccn2)c(Cl)c1 [Example A419, 2-chloro-N-(5-chloro-6-(2H-1,2,3-triazol-2-yl)pyridin-3-yl)-4-fluoro-5′-methyl-[1,1′:2′,1″-terphenyl]-4′-carboxamide]
≤ 10	C#Cc1cnc(F)c(N)c1-c1cc(Cl)c(C(=O)Nc2cnc(-n3nccn3)c(C(F)(F)F)c2)cc1F [Example A552, N-(6-(2H-1,2,3-triazol-2-yl)-5-(trifluoromethyl)pyridin-3-yl)-4-(3-amino-5-ethynyl-2-fluoropyridin-4-yl)-2-chloro-5-fluorobenzamide]
≤ 10	C#Cc1cnccc1-c1cc(Cl)c(C(=O)Nc2cnc(C(=O)NCCC)c(Cl)c2)cc1F [Example A430, 3-chloro-5-(2-chloro-4-(3-ethynylpyridin-4-yl)-5-fluorobenzamido)-N-propylpicolinamide]
10 to 100	Nc1cc(F)ccc1-c1cc(Cl)c(C(=O)Nc2cnc(C(=O)NCc3nc[nH]n3)c(Cl)c2)cc1F [Example A463, N-((1H-1,2,4-triazol-3-yl)methyl)-5-(2′-amino-5-chloro-2,4′-difluoro-[1,1′-biphenyl]-4-carboxamido)-3-chloropicolinamide]
≤ 10	Nc1cncc(Br)c1-c1cc(Cl)c(C(=O)Nc2cnc(-n3nccn3)c(C(F)(F)F)c2)cc1F [Example A517, N-(6-(2H-1,2,3-triazol-2-yl)-5-(trifluoromethyl)pyridin-3-yl)-4-(3-amino-5-bromopyridin-4-yl)-2-chloro-5-fluorobenzamide]
≤ 10	C#Cc1cc(C(=O)Nc2cnc(-n3nccn3)c(Cl)c2)c(C)cc1-c1ccc(F)cc1N [Example A409]
≤ 10	C#Cc1cccc(Cl)c1-c1cc(Cl)c(C(=O)Nc2cnc(-n3nccn3)c(C(F)(F)F)c2)cc1F [Example A413]
10 to 100	Nc1cc(F)ccc1-c1cc(Cl)c(C(=O)Nc2cnc(C(=O)NCCF)c(Cl)c2)cc1F [Example A461, 5-(2′-amino-5-chloro-2,4′-difluoro-[1,1′-biphenyl]-4-carboxamido)-3-chloro-N-(2-fluoroethyl)picolinamide]
≤ 10	C#Cc1cnccc1-c1cc(Cl)c(C(=O)Nc2ccc(OC)c(Cl)c2)cc1F [Example A338, 2-chloro-N-(3-chloro-4-methoxyphenyl)-4-(3-ethynylpyridin-4-y1)-5-fluorobenzamide]
≤ 10	CC(C)(C)CNC(=O)c1ncc(NC(=O)c2cc(F)c(-c3ccc(F)cc3N)cc2Cl)cc1Cl [Example A446, 5-(2′-amino-5-chloro-2,4′-difluoro-[1,1′-biphenyl]-4-carboxamido)-3-chloro-N-neopentylpicolinamide]
10 to 100	Nc1cc(F)ccc1-c1cc(Cl)c(C(=O)Nc2cnc(-n3nccn3)c(Cl)c2)cc1N [Example A460, 2,2′-diamino-5-chloro-N-(5-chloro-6-(2H-1,2,3-triazol-2-yl)pyridin-3-yl)-4′-fluoro-[1,1′-biphenyl]-4-carboxamide]
10 to 100	C=Cc1cc(C(=O)Nc2cnc(-n3nccn3)c(Cl)c2)c(C)cc1-c1ccc(F)cc1N [Example A425]
100 to 500	CC1(CNC(=O)c2ncc(NC(=O)c3cc(F)c(-c4ccc(F)cc4N)cc3Cl)cc2Cl)CC1 [Example A436, 5-(2′-amino-5-chloro-2,4′-difluoro-[1,1′-biphenyl]-4-carboxamido)-3-chloro-N-((1-methylcyclopropyl)methyl) picolinamide]
10 to 100	C#Cc1cnccc1-c1cc(Cl)c(C(=O)Nc2cnc(C(=O)NCc3ccoc3)c(Cl)c2)cc1F [Example A433, 3 3-chloro-5-(2-chloro-4-(3-ethynylpyridin-4-yl)-5-fluorobenzamido)-N-(furan-3-ylmethyl)picolinamide]
10 to 100	Cn1ccc(CNC(=O)c2ncc(NC(=O)c3cc(F)c(-c4ccc(F)cc4N)cc3Cl)cc2Cl)n1 [Example A455, 5-(2′-amino-5-chloro-2,4′-difluoro-[1,1′-biphenyl]-4-carboxamido)-3-chloro-N-((1-methyl-1H-pyrazol-3-yl)methyl)picolinamide]
10 to 100	CCCCNC(=O)c1ncc(NC(=O)c2cc(F)c(-c3ccc(F)cc3N)cc2Cl)cc1Cl [Example A438, 5-(2′-amino-5-chloro-2,4′-difluoro-[1,1′-biphenyl]-4-carboxamido)-N-butyl-3-chloropicolinamide]
10 to 100	NC(=O)CNC(=O)c1ncc(NC(=O)c2cc(F)c(-c3ccc(F)cc3N)cc2Cl)cc1Cl [Example A465, N-(2-amino-2-oxoethyl)-5-(2′-amino-5-chloro-2,4′-difluoro-[1,1′-biphenyl]-4-carboxamido)-3-chloropicolinamide]
